According to US11390631B1, “Benzodiazepine derivatives as RSV inhibitors” (priority 2015, dated 2022):

Tested on: Human RSV-A (“Long” strain)
Experiment: RSV-A assay: inhibition of cytopathic effect in Hep-2 cells, ATPlite readout
Format: cell-based, Human respiratory syncytial virus (HRSV)
Details: Hep-2 cells, MOI 0.1, 5-day incubation, ATPlite; read-out: Human RSV-A (“Long” strain) EC50
From the text: Hep-2 cells, (originally derived from tumors grown in irradiated-cortisonised weanling rats that had been injected with epidermoid carcinoma tissue from a person's larynx, but later found to be indistinguishable from HeLa cells by PCR DNA analysis), were used for the culturing of genotype A, “Long” strain RSV. Flasks were inoculated with RSV and viral stocks were collected once cytopathic effect (CPE) was greater than 90%. Viral stocks in 25% sucrose media were snap frozen using liquid nitrogen to increase viral stability. Viral stock titers were quantified by tissue culture infectious dose 50% (TCID50) using 8,000 cells per well and 3-fold viral dilutions across a 96-well plate, cultured for 4 days. Viral stock titers were also quantified by a plaque forming unit assay, as described elsewhere.
Following extensive parameter testing, the final assay is run as follows: Hep-2 cells are seeded into the inner 60 wells of a 96-well plate at 8,000 cells per well in a volume of 50 μL using Growth Media (DMEM without phenol red, 1% L-Glut, 1% Penn/Strep, 1% nonessential amino acids, 10% heat-inactivated FBS). 2-fold serial dilutions of control and test compounds are added to the wells in duplicate in a total volume of 25 μL. Viral stock is then added to the wells at a multiplicity of infection (MOI) of 0.1 in a volume of 25 μL, bringing the total volume of each well to 100 μL. The MOI is calculated using the PFU/mL, or TCID50 if unavailable. Each 96-well plate has a control column of 6 wells with cells and virus but no compound (negative control, max CPE), a column with cells but no compound or virus (positive control, minimum CPE), and a column with no cells or virus or compound (background plate/reagent control). The control wells with cells but no virus are given an additional 25 uL of growth media containing an equal quantity of sucrose as those wells receiving the viral stock in order to keep consistent in media and volume conditions. The outer wells of the plate are filled with 125 μL of moat media (DMEM, 1% Penn/Strep) to act as a thermal and evaporative moat around the test wells. Following a 5-day incubation period, the plates are read using ATPlite (50 uL added per well), which quantifies the amount of ATP (a measure of cell health) present in each well. Assay plates are read using the Envision luminometer. In parallel, cytotoxicity is examined on an additional 96-well plate treated in an identical manner, but substituting the 25 μL of viral stock for 25 μL of growth media. […] EC50 ranges are as follows: A<0.4 μM; B 0.4-0.8 μM; C>0.8 μM and CC50 ranges are as follows: A>50 μM; B 10-50 μM; C<10 μM.

SMILES	EC50 [µM]
O=C1Nc2ccccc2C(c2ccccc2)=N[C@@H]1Nc1nnc(-c2nc(C(F)(F)F)sc2N2CCO[C@H]3C[C@H]32)o1 (single isomer, unassigned) [Example 484]	< 0.4
O=C1Nc2ccccc2C(c2ccccc2)=N[C@H]1Nc1nnc(-c2nc(C(F)(F)F)sc2N2CCO[C@H]3C[C@H]32)o1 (single isomer, unassigned) [Example 485]	> 0.8
O=C1Nc2ccccc2C(c2ccccc2)=N[C@@H]1Nc1nnc(-c2nc(C(F)(F)F)sc2N2CCO[C@@H]3C[C@@H]32)o1 (single isomer, unassigned) [Example 486]	> 0.8
O=C1Nc2ccccc2C(c2ccccc2)=N[C@H]1Nc1nnc(-c2nc(C(F)(F)F)sc2N2CCO[C@@H]3C[C@@H]32)o1 (single isomer, unassigned) [Example 487]	> 0.8

Same assay, conditions: human respiratory syncytial virus, HEp-2, 120 h, read-out: Human RSV-A (“Long” strain) EC50

SMILES	EC50 [µM]
O=C1Nc2ccccc2C(c2ccccc2)=N[C@@H]1Nc1nnc(-c2ncc(C(F)(F)F)cc2N2CCOC3CC32)o1 (mixture of isomers) [Example 466]	< 0.4
O=C1Nc2ccccc2C(c2ccccc2)=N[C@@H]1Nc1nnc(-c2ncc(C(F)(F)F)cc2N2CCOC(C(F)(F)F)C2)o1 (mixture of isomers) [Example 467]	< 0.4
N#Cc1ccc(-c2nnc(NC3N=C(c4ccccc4)c4ccccc4NC3=O)o2)nc1 (centres unmarked) [Example 24]	0.4 to 0.8
COc1cc(-c2nnc(NC3N=C(c4ccccc4)c4ccccc4NC3=O)o2)ccn1 (centres unmarked) [Example 56]	> 0.8
CCOC(=O)c1nnc(NC2N=C(c3ccccc3)c3ccccc3NC2=O)o1 (centres unmarked) [Example 78]	> 0.8
O=C1Nc2ccccc2C(c2ccccc2)=NC1Nc1ncc(-c2ccccc2)s1 (centres unmarked) [Example 85]	> 0.8
O=C1Nc2ccccc2C(c2ccccc2)=NC1Nc1noc(-c2ccccc2)n1 (centres unmarked) [Example 91]	> 0.8
COc1ccc(CN2C(=O)C(C)(N)N=C(c3ccccc3)c3ccccc32)cc1 (centres unmarked) [Example 102]	> 0.8
CS(=O)(=O)c1ccc(-c2nnc(NC3N=C(c4ccccc4)c4ccccc4NC3=O)o2)nc1 (centres unmarked) [Example 107]	> 0.8
COc1ccc(-c2nnc(NC3N=C(c4ccccc4)c4ccccc4NC3=O)o2)nc1Cl (centres unmarked) [Example 109]	> 0.8
Cc1nc(-c2nnc(NC3N=C(c4ccccc4)c4ccccc4NC3=O)o2)ccc1F (centres unmarked) [Example 110]	> 0.8
O=C1Nc2ccccc2C(c2ccccc2)=NC1Nc1nnc(-c2cccc(N3CCOCC3)c2)o1 (centres unmarked) [Example 111]	> 0.8
O=C1Nc2ccccc2C(c2ccccc2)=NC1Nc1nnc(-c2ccc(N3CCOCC3)c(F)c2)o1 (centres unmarked) [Example 112]	> 0.8
O=C1Nc2ccccc2C(c2ccccc2)=NC1Nc1nnc(-c2ccc(N3CCOCC3)cn2)o1 (centres unmarked) [Example 114]	> 0.8
O=C1Nc2ccccc2C(c2ccccc2)=NC1Nc1nnc(-c2ccc(N3CCOCC3)nc2)o1 (centres unmarked) [Example 115]	< 0.4
O=C1Nc2ccccc2C(c2ccccc2)=NC1Nc1nnc(-c2ccc(NC3CCCCC3)cc2)o1 (centres unmarked) [Example 116]	> 0.8
COCCNc1ccc(-c2nnc(NC3N=C(c4ccccc4)c4ccccc4NC3=O)o2)cc1 (centres unmarked) [Example 117]	> 0.8
COCCN(C)c1ccc(-c2nnc(NC3N=C(c4ccccc4)c4ccccc4NC3=O)o2)cc1 (centres unmarked) [Example 118]	> 0.8
O=C1Nc2ccccc2C(c2ccccc2)=NC1Nc1nnc(-c2cc(F)ccc2N2CCOCC2)o1 (centres unmarked) [Example 119]	0.4 to 0.8
CS(=O)(=O)c1ccc(-c2nnc(NC3N=C(c4ccccc4)c4ccccc4NC3=O)o2)c(N2CCOCC2)c1 (centres unmarked) [Example 121]	> 0.8
O=C1Nc2ccccc2C(c2ccccc2)=NC1Nc1nnc(-c2ccc(N3CCOCC3)cc2Cl)o1 (centres unmarked) [Example 122]	> 0.8
O=C1Nc2ccccc2C(c2ccccc2)=NC1Nc1nnc(-c2ccc(N3CCOCC3)cc2)o1 (centres unmarked) [Example 124a]	< 0.4
O=C1Nc2ccccc2C(c2ccccc2)=N[C@H]1Nc1nnc(-c2ccc(N3CCOCC3)cc2)o1 [Example 124b]	> 0.8
O=C1Nc2ccccc2C(c2ccccc2)=N[C@@H]1Nc1nnc(-c2ccccc2N2CCOCC2)o1 [Example 125a]	< 0.4
O=C1Nc2ccccc2C(c2ccccc2)=N[C@H]1Nc1nnc(-c2ccccc2N2CCOCC2)o1 [Example 125b]	> 0.8
O=C1Nc2ccccc2C(c2ccccc2)=N[C@@H]1Nc1nnc(-c2ccc(N3CCOCC3)cc2F)o1 [Example 126a]	< 0.4

SMILES	EC50 [µM]
O=C1Nc2ccccc2C(c2ccccc2)=N[C@H]1Nc1nnc(-c2ccc(N3CCOCC3)cc2F)o1 [Example 126b]	> 0.8
O=C1Nc2ccccc2C(c2ccccc2)=NC1Nc1nnc(-c2ccc(-n3cncn3)cc2N2CCOCC2)o1 (centres unmarked) [Example 128]	0.4 to 0.8
O=C1Nc2ccccc2C(c2ccccc2)=NC1Nc1nnc(-c2ccc(C(F)(F)F)nc2N2CCOCC2)o1 (centres unmarked) [Example 130]	0.4 to 0.8
O=C1Nc2ccccc2C(c2ccccc2)=NC1Nc1nnc(-c2ncccc2N2CCOCC2)o1 (centres unmarked) [Example 132]	< 0.4
O=C1Nc2ccccc2C(c2ccccc2)=NC1Nc1nnc(-c2cnccc2N2CCOCC2)o1 (centres unmarked) [Example 133]	0.4 to 0.8
O=C1Nc2ccccc2C(c2ccccc2)=NC1Nc1nnc(-c2cnccc2N2CCCCC2)o1 (centres unmarked) [Example 134]	> 0.8
O=C1Nc2ccccc2C(c2ccccc2)=NC1Nc1nnc(-c2ncc(N3CCOCC3)cc2Cl)o1 (centres unmarked) [Example 135]	> 0.8
N#Cc1cnc(-c2nnc(NC3N=C(c4ccccc4)c4ccccc4NC3=O)o2)c(N2CCOCC2)c1 (centres unmarked) [Example 140]	< 0.4
O=C1Nc2ccccc2C(c2ccccc2)=NC1Nc1nnc(-c2ccncc2N2CCCCC2)o1 (centres unmarked) [Example 141]	> 0.8
O=C1Nc2ccccc2C(c2ccccc2)=NC1Nc1nnc(-c2ccncc2N2CCOCC2)o1 (centres unmarked) [Example 142]	0.4 to 0.8
O=C1Nc2ccccc2C(c2ccccc2)=NC1Nc1nnc(-c2nccnc2N2CCOCC2)o1 (centres unmarked) [Example 143]	< 0.4
O=C1Nc2ccccc2C(c2ccccc2)=NC1Nc1nnc(-c2cc(F)cnc2N2CCOCC2)o1 (centres unmarked) [Example 145]	0.4 to 0.8
O=C1Nc2ccccc2C(c2ccccc2)=NC1Nc1nnc(-c2cc(C(F)(F)F)cnc2N2CCOCC2)o1 (centres unmarked) [Example 146]	> 0.8
O=C1Nc2ccccc2C(c2ccccc2)=NC1Nc1nnc(-c2ccc(N3CCOCC3)cc2C(F)(F)F)o1 (centres unmarked) [Example 147]	> 0.8
O=C1Nc2ccccc2C(c2ccccc2)=NC1Nc1nnc(-c2cccc(F)c2N2CCOCC2)o1 (centres unmarked) [Example 148]	> 0.8
O=C1Nc2ccccc2C(c2ccccc2)=N[C@@H]1Nc1nnc(-c2ccc(F)nc2N2CCOCC2)o1 [Example 151, (S)-3-((5-(6-fluoro-2-morpholinopyridin-3-yl)-1,3,4-oxadiazol-2-yl)amino)-5-phenyl-1,3-dihydro-2H-benzo[e][1,4]diazepin-2-one]	< 0.4
O=C1Nc2ccccc2C(c2ccccc2)=N[C@@H]1Nc1nnc(-c2ccc(C(F)(F)F)cc2N2CCOCC2)o1 [Example 152]	< 0.4
O=C1Nc2ccccc2C(c2ccccc2)=N[C@@H]1Nc1nnc(-c2ccc(C3CC3)nc2N2CCOCC2)o1 [Example 154]	< 0.4
O=C1Nc2ccccc2C(c2ccccc2)=N[C@@H]1Nc1nnc(-c2ccc(=O)[nH]c2N2CCOCC2)o1 [Example 156, (S)-3-((5-(2-morpholino-6-oxo-1,6-dihydropyridin-3-yl)-1,3,4-oxadiazol-2-yl)amino)-5-phenyl-1,3-dihydro-2H-benzo[e][1,4]diazepin-2-one]	> 0.8
N#Cc1ccc(-c2nnc(N[C@H]3N=C(c4ccccc4)c4ccccc4NC3=O)o2)c(N2CCOCC2)c1 [Example 157]	< 0.4
O=C1Nc2ccccc2C(c2ccccc2)=N[C@@H]1Nc1nnc(-c2ccc(F)cc2N2CCOCC2)o1 [Example 159]	< 0.4
O=C1Nc2ccccc2C(c2ccccc2)=N[C@@H]1Nc1nnc(-c2cnc(N3CCOCC3)cn2)o1 [Example 161]	> 0.8
O=C1Nc2ccccc2C(c2ccccc2)=N[C@@H]1Nc1nnc(-c2cnc(C(F)(F)F)nc2N2CCOCC2)o1 [Example 162]	< 0.4
O=C1Nc2ccccc2C(c2ccccc2)=N[C@@H]1Nc1nnc(-c2nc3ccccn3c2N2CCOCC2)o1 [Example 163]	> 0.8
Cn1cc(N2CCOCC2)c(-c2nnc(N[C@H]3N=C(c4ccccc4)c4ccccc4NC3=O)o2)n1 [Example 164]	< 0.4
O=C1Nc2ccccc2C(c2ccccc2)=N[C@@H]1Nc1nnc(-c2cnc(N3CCOCC3)nc2)o1 [Example 165]	0.4 to 0.8
